Values joined by “and” are separate entries in the source; they are usually repeats but may differ in a detail not shown here. Identical values can stand only once.
Assays:
[1] = test system: p-CREB (phosphorylated cAMP response-element binding protein) in human whole blood; assay: p-CREB assay in human whole blood by flow cytometry (NECA stimulation, CD4 staining); format: cell-based; settings: replicate values separated by /
Procedure: Assay protocol for p-CREB (phosphorylated cAMP response-element binding protein) in human whole blood by flow cytometry
Fresh human whole blood (Biological Specialty Corporation) was added at 100 ul per wellinto a 96-well plate and treated with test compounds (Serial dilutions of 1:3 with starting concentration at 30 uM, 11 concentrations total, in the presence of adenosine deaminase) for one hour at room temperature on a plate shaker. Then 10 ul of 10× NECA (50 uM stock in PBS) and 10 ul of 10 × Rolipram (50 uM stock in PBS) were added, with designated wells for unstimulated (Rolipram+DMSO) and stimulated (Rolipram+NECA+DMSO) conditions. The plates were mixed well and incubated at room temperature for 30 min on a plate shaker. 1× lyse/Fix buffer (5× stock, BD #558049) was warmed to 37° in a water bath. 1200 ul of pre-warmed 1× lyse/Fix buffer was then added to the plate, which was then sealed and mixed by inverting the plate a few times. The plate was then incubated for 30 min at 37° in a water bath. After incubation, the plate was centrifuged at 1600 rpm for 5 min and the supernatant was decanted, then 1200 ul PBS was added and the plate was mixed by inverting a few times followed by centrifuging at 1600 rpm for 5 min and again decanting the supernatant. Then, 200 ul FIX PERM buffer II (BD #558052) was added and the plate was mixed well, then kept on ice for 45 min After spinning the plate at 1600 rpm for 5 min the supernatant was again decanted. Then was added 200 ul staining buffer (BD #554657), and the plate was mixed well and spun at 1600 rpm for 5 min, then the supernatant was again decanted. 200 ul staining buffer was added, the plate was mixed well and the plate was sealed at this step for storage at 4° overnight or until staining. Before staining, the plate was spun at 1600 rpm for 5 min and the supernatant was again decanted. Antibody mix in staining buffer was prepared (75 ul/well, 1:50 dilution for p-CREB antibody from Cell Signaling Tech #14001S, 1:200 dilution for CD4 antibody from BD #566320) and the cells were resuspended in the above antibody mix solution. After mixing well, the plate was incubated (shielded from light) at room temperature for two hours on a plate shaker. It was then spun at 1600 rpm for 5 min and the supernatant was decanted. 200 ul staining buffer was then added to wash cells, and the plate was then mixed by shaking or pipetting. The wash step was repeated at least one more time, and after the final wash, cells were resusptended in 200 ul staining buffer in U bottom plate for flow cytometry analysis.

Adenosine A2A receptor = Adenosine A2A receptor (Homo sapiens, UniProt P29274); assay: cAMP assay in 293A cells stably expressing the adenosine A2A receptor (CGS21680 stimulation, HTRF); format: cell-based; parameters: expressed in transfected cells; host or cells: 293A cells (Invitrogen, Cat# R705-07) infected with A2A-expressing lentivirus (custom packaged by Biosettia), puromycin selected; settings: 293A cells stably expressing A2A receptor; 0.1% BSA; 1 uM CGS21680 stimulation; replicate values separated by /; read-out: cAMP (nM) 0.1% BSA, 1 uM CGS
Sequence of Adenosine A2A receptor (P29274 whole entry): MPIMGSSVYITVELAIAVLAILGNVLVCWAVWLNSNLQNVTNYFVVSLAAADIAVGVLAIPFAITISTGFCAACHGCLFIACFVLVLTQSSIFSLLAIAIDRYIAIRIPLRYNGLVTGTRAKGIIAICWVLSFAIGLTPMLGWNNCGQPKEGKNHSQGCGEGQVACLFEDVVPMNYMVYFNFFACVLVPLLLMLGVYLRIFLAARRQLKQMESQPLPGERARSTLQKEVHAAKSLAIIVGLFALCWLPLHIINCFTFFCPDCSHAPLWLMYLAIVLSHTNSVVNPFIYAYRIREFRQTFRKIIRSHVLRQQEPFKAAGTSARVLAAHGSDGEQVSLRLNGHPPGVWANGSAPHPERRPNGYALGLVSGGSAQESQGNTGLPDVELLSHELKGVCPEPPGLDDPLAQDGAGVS

| IC50 ([1]; Homo sapiens) [nM] | IC50 [1] [nM] | IC50 (Adenosine A2A receptor) | SMILES |
| --- | --- | --- | --- |
| 43.6 | 26.2 | 20 nM and 70 nM and 68 nM and 141 nM | CCC(CC)(C(=O)O)c1cccc(COc2nc(N)nc(-c3ccc(F)cc3)c2-c2cc(C)nc(C(F)F)c2)n1 [Example 398, 2-(6-(((2-amino-5-(2-(difluoromethyl)-6-methylpyridin-4-yl)-6-(4-fluorophenyl)pyrimidin-4-yl)oxy)methyl)pyridin-2-yl)-2-ethylbutanoic acid] |
| 201 | – | 273 nM and 362 nM and 482 nM and 440 nM | Cc1cc(-c2c(OCc3cccc(-c4nn[nH]n4)n3)nc(N)nc2-c2ccc(F)cc2)cc(C(F)F)n1 [Example 399, 4-((6-(2H-tetrazol-5-yl)pyridin-2-yl)methoxy)-5-(2-(difluoromethyl)-6-methylpyridin-4-yl)-6-(4-fluorophenyl)pyrimidin-2-amine] |
| 692 | – | 515 nM and 579 nM and 560 nM | Cc1cc(-c2c(OCc3cccc(N(CCO)CCO)n3)nc(N)nc2-c2ccc(F)cc2)cc(C(F)F)n1 [Example 402, 2,2′-((6-(((2-amino-5-(2-(difluoromethyl)-6-methylpyridin-4-yl)-6-(4-fluorophenyl)pyrimidin-4-yl)oxy)methyl)pyridin-2-yl)azanediyl)bis(ethan-1-ol)] |
| 108 | – | 249 nM and 322 nM and 311 nM | CNCc1cccc(COc2nc(N)nc(-c3ccc(F)cc3)c2-c2cc(C)nc(C(F)F)c2)n1 [Example 403, 5-(2-(difluoromethyl)-6-methylpyridin-4-yl)-4-(4-fluorophenyl)-6-((6-((methylamino)methyl)pyridin-2-yl)methoxy)pyrimidin-2-amine] |
| 91.5 | – | 107 nM and 88 nM | Cc1cc(-c2c(OCc3cccc(C(C)(C)NCCO)n3)nc(N)nc2-c2ccc(F)cc2)cc(C(F)F)n1 [Example 407, 2-((2-(6-(((2-amino-5-(2-(difluoromethyl)-6-methylpyridin-4-yl)-6-(4-fluorophenyl)pyrimidin-4-yl)oxy)methyl)pyridin-2-yl)propan-2-yl)amino)ethan-1-ol] |
| 37.9 | – | 68 nM and 41 nM and 19 nM and 74 nM | Cc1cc(-c2c(OCCN3CCCc4cccnc43)nc(N)nc2-c2ccc(F)cc2)cc(C(F)F)n1 [Example 408, 5-(2-(difluoromethyl)-6-methylpyridin-4-yl)-4-(2-(3,4-dihydro-1,8-naphthyridin-1 (2H)-yl)ethoxy)-6-(4-fluorophenyl)pyrimidin-2-amine] |
| 20 | – | 97 nM and 142 nM and 124 nM and 178 nM | COC(=O)NCc1cccc(COc2nc(N)nc(-c3ccc(F)cc3)c2-c2cc(C)nc(C(F)F)c2)n1 [Example 410, methyl((6-(((2-amino-5-(2-(difluoromethyl)-6-methylpyridin-4-yl)-6-(4-fluorophenyl)pyrimidin-4-yl)oxy)methyl)pyridin-2-yl)methyl)carbamate] |
| 50.2 | 40.8 | 4.5 nM and 19 nM and 14 nM | Cc1cc(-c2c(OCc3ccnc(N)n3)nc(N)nc2-c2ccc(F)cc2)cc(C(F)F)n1 [Example 413, 4-((2-aminopyrimidin-4-yl)methoxy)-5-(2-(difluoromethyl)-6-methylpyridin-4-yl)-6-(4-fluorophenyl)pyrimidin-2-amine] |
| 16 | – | 97 nM and 152 nM and 129 nM | CNC(=O)NCc1cccc(COc2nc(N)nc(-c3ccc(F)cc3)c2-c2cc(C)nc(C(F)F)c2)n1 [Example 415, 1-((6-(((2-amino-5-(2-(difluoromethyl)-6-methylpyridin-4-yl)-6-(4-fluorophenyl)pyrimidin-4-yl)oxy)methyl)pyridin-2-yl)methyl)-3-methylurea] |
| 38.7 | – | 60 nM and 44 nM | Cc1cc(-c2c(OCc3cccc(C(C)(C)NC(CO)CO)n3)nc(N)nc2-c2ccc(F)cc2)cc(C(F)F)n1 [Example 417, 2-((2-(6-(((2-amino-5-(2-(difluoromethyl)-6-methylpyridin-4-yl)-6-(4-fluorophenyl)pyrimidin-4-yl)oxy)methyl)pyridin-2-yl)propan-2-yl)amino)propane-1,3-diol] |
| 89.3 | – | 191 nM and 177 nM | Cc1cc(-c2c(OCc3cccc(CNCCO)n3)nc(N)nc2-c2ccc(F)cc2)cc(C(F)F)n1 [Example 418, 2-(((6-(((2-amino-5-(2-(difluoromethyl)-6-methylpyridin-4-yl)-6-(4-fluorophenyl)pyrimidin-4-yl)oxy)methyl)pyridin-2-yl)methyl)amino)ethan-1-ol] |
| 87.8 | – | 470 nM and 311 nM | Cc1cc(-c2c(OCc3cccc(CNC(CO)CO)n3)nc(N)nc2-c2ccc(F)cc2)cc(C(F)F)n1 [Example 419, 2-(((6-(((2-amino-5-(2-(difluoromethyl)-6-methylpyridin-4-yl)-6-(4-fluorophenyl)pyrimidin-4-yl)oxy)methyl)pyridin-2-yl)methyl)amino)propane-1,3-diol] |
| 55.7 | – | 122 nM and 112 nM | Cc1cc(-c2c(OCc3cccc(OC(CO)CO)n3)nc(N)nc2-c2ccc(F)cc2)cc(C(F)F)n1 [Example 420] |
| 424 | – | 432 nM and 338 nM | Cc1cc(-c2c(OCc3ccc(=O)n(C)n3)nc(N)nc2-c2ccc(F)cc2)cc(C(F)F)n1 [Example 422, 6-(((2-amino-5-(2-(difluoromethyl)-6-methylpyridin-4-yl)-6-(4-fluorophenyl)pyrimidin-4-yl)oxy)methyl)-2-methylpyridazin-3(2H)-one] |
| 33.3 | 29 | 35 nM and 74 nM and 23 nM | CNC(=O)OCc1cccc(COc2nc(N)nc(-c3ccc(F)cc3)c2-c2cc(C)nc(C(F)F)c2)n1 [Example 425, (6-(((2-amino-5-(2-(difluoromethyl)-6-methylpyridin-4-yl)-6-(4-fluorophenyl)pyrimidin-4-yl)oxy)methyl)pyridin-2-yl)methyl methylcarbamate] |
| 33 | – | 59 nM and 43 nM | Cc1cc(-c2c(OCc3cccc(COC(N)=O)n3)nc(N)nc2-c2ccc(F)cc2)cc(C(F)F)n1 [Example 429, (6-(((2-amino-5-(2-(difluoromethyl)-6-methylpyridin-4-yl)-6-(4-fluorophenyl)pyrimidin-4-yl)oxy)methyl)pyridin-2-yl)methyl carbamate] |
| 2000 | – | 412 nM and 315 nM and 310 nM | Cc1cc(-c2c(OCc3cccc(C(C#N)(CCO)CCO)n3)nc(N)nc2-c2ccc(F)cc2)cc(C(F)F)n1 [Example 431, 2-(6-(((2-amino-5-(2-(difluoromethyl)-6-methylpyridin-4-yl)-6-(4-fluorophenyl)pyrimidin-4-yl)oxy)methyl)pyridin-2-yl)-4-hydroxy-2-(2-hydroxyethyl)butanenitrile] |
| 59 | – | 342 nM and 210 nM | Cc1cc(-c2c(OCc3cccc(CNCC(N)=O)n3)nc(N)nc2-c2ccc(F)cc2)cc(C(F)F)n1 [Example 433, 2-(((6-(((2-amino-5-(2-(difluoromethyl)-6-methylpyridin-4-yl)-6-(4-fluorophenyl)pyrimidin-4-yl)oxy)methyl)pyridin-2-yl)methyl)amino)acetamide] |
| 411 | – | 346 nM and 290 nM | Cc1cc(-c2c(OCc3ccnc(OC(CO)CO)n3)nc(N)nc2-c2ccc(F)cc2)cc(C(F)F)n1 [Example 434, 2-((4-(((2-amino-5-(2-(difluoromethyl)-6-methylpyridin-4-yl)-6-(4-fluorophenyl)pyrimidin-4-yl)oxy)methyl)pyrimidin-2-yl)oxy)propane-1,3-diol] |
| 232 | – | 282 nM | Cc1cc(-c2c(OCc3cccc(CNCC(=O)N(C)C)n3)nc(N)nc2-c2ccc(F)cc2)cc(C(F)F)n1 [Example 437, 2-(((6-(((2-amino-5-(2-(difluoromethyl)-6-methylpyridin-4-yl)-6-(4-fluorophenyl)pyrimidin-4-yl)oxy)methyl)pyridin-2-yl)methyl)amino)-N,N-dimethylacetamide] |
| 252 | – | 103 nM | Cc1cc(-c2c(OCc3cccc(C4(CCO)CCOC4=O)n3)nc(N)nc2-c2ccc(F)cc2)cc(C(F)F)n1 (stereo not drawn) [Example 439, 3-(6-(((2-amino-5-(2-(difluoromethyl)-6-methylpyridin-4-yl)-6-(4-fluorophenyl)pyrimidin-4-yl)oxy)methyl)pyridin-2-yl)-3-(2-hydroxyethyl)dihydrofuran-2(3H)-one] |
